Our source for the Activity values is ChEMBL document CHEMBL5715954, “Silencing c-Myc translation as a therapeutic strategy through targeting PI3Kδ and CK1ε in hematological malignancies” (Blood, 2017).

Structures are written as SMILES.

What all share (design): scale not given: the % may be the effect or the level left
Assay [1] addresses T1, Protein kinase C zeta type (Homo sapiens) (UniProt Q05513).
T1 sequence (whole entry): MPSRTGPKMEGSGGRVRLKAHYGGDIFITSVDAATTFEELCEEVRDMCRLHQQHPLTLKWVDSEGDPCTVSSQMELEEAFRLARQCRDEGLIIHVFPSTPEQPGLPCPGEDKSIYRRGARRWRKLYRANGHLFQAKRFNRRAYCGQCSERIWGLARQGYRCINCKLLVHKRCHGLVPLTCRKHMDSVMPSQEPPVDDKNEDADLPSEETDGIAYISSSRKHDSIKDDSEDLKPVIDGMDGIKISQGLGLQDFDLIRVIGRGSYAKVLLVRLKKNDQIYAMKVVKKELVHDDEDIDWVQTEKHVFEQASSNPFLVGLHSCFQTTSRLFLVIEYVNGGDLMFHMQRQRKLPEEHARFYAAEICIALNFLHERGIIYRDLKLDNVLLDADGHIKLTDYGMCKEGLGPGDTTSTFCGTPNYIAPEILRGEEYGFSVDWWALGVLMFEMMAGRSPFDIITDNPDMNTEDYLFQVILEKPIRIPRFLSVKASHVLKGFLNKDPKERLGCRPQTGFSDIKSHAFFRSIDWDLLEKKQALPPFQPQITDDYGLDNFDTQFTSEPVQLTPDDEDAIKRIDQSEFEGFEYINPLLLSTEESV
As to the kind of experiment: Inhibition of human PKCzeta assessed as enzyme activity at 1 uM using ERMRPRKRQGSVRRRV as substrate preincubated for 20 mins followed by [gamma-33P]-ATP addition and measured after 120 mins by radiometric Hot-SpotSM Kinase assay relative to control.

Assay [2] addresses T2, Serine/threonine-protein kinase Nek9 (Homo sapiens) (UniProt Q8TD19).
T2 sequence (whole entry): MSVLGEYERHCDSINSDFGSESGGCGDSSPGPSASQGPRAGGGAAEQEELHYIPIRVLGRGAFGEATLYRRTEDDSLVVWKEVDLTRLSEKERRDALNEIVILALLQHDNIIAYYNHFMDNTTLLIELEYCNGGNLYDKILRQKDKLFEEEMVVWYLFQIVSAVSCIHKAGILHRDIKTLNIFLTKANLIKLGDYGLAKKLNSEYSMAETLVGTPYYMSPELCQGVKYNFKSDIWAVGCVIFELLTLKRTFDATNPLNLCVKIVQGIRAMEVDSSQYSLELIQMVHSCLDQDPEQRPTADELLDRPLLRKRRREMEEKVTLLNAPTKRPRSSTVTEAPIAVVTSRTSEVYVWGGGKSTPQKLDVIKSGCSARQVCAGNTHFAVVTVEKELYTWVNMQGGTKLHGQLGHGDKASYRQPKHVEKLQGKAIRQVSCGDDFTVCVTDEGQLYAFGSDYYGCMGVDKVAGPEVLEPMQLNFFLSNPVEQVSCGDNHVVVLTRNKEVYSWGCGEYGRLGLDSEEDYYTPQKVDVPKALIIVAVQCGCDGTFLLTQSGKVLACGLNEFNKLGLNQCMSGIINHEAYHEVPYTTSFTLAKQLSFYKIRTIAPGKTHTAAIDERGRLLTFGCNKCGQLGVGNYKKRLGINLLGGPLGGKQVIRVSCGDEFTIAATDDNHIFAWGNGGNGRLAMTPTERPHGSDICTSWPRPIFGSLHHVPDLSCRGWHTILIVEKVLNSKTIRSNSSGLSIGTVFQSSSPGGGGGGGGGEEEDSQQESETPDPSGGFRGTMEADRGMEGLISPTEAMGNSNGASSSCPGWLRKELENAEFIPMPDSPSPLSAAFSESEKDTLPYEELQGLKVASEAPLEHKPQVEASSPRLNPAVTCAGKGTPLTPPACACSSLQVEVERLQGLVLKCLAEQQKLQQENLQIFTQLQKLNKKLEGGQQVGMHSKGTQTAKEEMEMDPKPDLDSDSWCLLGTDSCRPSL
The assay can be described thus: Inhibition of human NEK9 assessed as enzyme activity at 1 uM using myelin basic protein as substrate preincubated for 20 mins followed by [gamma-33P]-ATP addition and measured after 120 mins by radiometric Hot-SpotSM Kinase assay relative to control.

Assay [3] deals with Mast/stem cell growth factor receptor Kit (Homo sapiens) (UniProt P10721). As to the kind of experiment: Inhibition of human c-Kit assessed as enzyme activity at 1 uM using poly[Glu:Tyr] (4:1) as substrate preincubated for 20 mins followed by [gamma-33P]-ATP addition and measured after 120 mins by radiometric Hot-SpotSM Kinase assay relative to control.
Mast/stem cell growth factor receptor Kit (Homo sapiens), sequence (P10721 whole entry): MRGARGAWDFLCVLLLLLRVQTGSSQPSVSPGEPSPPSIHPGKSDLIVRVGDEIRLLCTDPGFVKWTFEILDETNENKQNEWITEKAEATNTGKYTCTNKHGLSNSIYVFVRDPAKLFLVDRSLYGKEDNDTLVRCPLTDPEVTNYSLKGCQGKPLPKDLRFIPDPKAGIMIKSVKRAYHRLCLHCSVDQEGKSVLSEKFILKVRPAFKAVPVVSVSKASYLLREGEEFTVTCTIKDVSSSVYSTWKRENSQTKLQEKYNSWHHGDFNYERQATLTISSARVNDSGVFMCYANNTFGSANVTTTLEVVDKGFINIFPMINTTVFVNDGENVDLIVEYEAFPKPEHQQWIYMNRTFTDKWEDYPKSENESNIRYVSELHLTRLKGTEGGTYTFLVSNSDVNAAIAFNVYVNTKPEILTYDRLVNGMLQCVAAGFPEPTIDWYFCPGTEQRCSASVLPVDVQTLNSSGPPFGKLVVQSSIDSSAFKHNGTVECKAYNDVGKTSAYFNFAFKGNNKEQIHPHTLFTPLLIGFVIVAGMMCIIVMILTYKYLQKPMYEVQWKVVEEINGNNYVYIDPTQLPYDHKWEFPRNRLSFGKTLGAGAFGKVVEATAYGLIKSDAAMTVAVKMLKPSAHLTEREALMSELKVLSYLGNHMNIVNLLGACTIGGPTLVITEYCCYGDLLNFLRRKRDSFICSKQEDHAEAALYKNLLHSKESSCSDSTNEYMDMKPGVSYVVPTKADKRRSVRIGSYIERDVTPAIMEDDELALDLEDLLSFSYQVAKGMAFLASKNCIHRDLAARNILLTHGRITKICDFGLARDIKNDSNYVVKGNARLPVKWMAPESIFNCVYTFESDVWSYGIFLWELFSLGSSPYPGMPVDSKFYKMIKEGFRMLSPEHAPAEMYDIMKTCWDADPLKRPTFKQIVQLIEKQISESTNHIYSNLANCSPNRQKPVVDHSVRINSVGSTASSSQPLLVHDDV
Assay [4] has as its target T3, Serine/threonine-protein kinase Nek3 (Homo sapiens) (UniProt P51956).
T3 sequence (whole entry): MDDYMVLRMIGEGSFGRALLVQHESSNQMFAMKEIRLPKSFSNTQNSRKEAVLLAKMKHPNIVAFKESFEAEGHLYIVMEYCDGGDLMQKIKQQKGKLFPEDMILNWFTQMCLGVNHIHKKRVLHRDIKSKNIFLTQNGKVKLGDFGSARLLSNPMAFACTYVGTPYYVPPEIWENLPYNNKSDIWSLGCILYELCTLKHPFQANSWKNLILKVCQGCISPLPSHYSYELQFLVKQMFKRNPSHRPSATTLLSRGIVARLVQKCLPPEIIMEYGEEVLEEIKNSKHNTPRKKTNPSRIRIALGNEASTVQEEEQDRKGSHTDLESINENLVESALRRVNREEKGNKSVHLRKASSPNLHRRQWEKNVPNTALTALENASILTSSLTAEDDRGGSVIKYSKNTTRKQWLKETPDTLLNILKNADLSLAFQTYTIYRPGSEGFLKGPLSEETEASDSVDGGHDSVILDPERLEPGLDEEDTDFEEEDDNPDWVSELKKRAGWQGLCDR
As to the kind of experiment: Inhibition of human NEK3 assessed as enzyme activity at 1 uM using myelin basic protein as substrate preincubated for 20 mins followed by [gamma-33P]-ATP addition and measured after 120 mins by radiometric Hot-SpotSM Kinase assay relative to control.

For assay [5], the target named is Serine/threonine-protein kinase WNK3 (Homo sapiens) (UniProt Q9BYP7). As to the kind of experiment: Inhibition of human WNK3 assessed as enzyme activity at 1 uM using myelin basic protein as substrate preincubated for 20 mins followed by [gamma-33P]-ATP addition and measured after 120 mins by radiometric Hot-SpotSM Kinase assay relative to control.
Serine/threonine-protein kinase WNK3 (Homo sapiens), sequence (Q9BYP7 whole entry): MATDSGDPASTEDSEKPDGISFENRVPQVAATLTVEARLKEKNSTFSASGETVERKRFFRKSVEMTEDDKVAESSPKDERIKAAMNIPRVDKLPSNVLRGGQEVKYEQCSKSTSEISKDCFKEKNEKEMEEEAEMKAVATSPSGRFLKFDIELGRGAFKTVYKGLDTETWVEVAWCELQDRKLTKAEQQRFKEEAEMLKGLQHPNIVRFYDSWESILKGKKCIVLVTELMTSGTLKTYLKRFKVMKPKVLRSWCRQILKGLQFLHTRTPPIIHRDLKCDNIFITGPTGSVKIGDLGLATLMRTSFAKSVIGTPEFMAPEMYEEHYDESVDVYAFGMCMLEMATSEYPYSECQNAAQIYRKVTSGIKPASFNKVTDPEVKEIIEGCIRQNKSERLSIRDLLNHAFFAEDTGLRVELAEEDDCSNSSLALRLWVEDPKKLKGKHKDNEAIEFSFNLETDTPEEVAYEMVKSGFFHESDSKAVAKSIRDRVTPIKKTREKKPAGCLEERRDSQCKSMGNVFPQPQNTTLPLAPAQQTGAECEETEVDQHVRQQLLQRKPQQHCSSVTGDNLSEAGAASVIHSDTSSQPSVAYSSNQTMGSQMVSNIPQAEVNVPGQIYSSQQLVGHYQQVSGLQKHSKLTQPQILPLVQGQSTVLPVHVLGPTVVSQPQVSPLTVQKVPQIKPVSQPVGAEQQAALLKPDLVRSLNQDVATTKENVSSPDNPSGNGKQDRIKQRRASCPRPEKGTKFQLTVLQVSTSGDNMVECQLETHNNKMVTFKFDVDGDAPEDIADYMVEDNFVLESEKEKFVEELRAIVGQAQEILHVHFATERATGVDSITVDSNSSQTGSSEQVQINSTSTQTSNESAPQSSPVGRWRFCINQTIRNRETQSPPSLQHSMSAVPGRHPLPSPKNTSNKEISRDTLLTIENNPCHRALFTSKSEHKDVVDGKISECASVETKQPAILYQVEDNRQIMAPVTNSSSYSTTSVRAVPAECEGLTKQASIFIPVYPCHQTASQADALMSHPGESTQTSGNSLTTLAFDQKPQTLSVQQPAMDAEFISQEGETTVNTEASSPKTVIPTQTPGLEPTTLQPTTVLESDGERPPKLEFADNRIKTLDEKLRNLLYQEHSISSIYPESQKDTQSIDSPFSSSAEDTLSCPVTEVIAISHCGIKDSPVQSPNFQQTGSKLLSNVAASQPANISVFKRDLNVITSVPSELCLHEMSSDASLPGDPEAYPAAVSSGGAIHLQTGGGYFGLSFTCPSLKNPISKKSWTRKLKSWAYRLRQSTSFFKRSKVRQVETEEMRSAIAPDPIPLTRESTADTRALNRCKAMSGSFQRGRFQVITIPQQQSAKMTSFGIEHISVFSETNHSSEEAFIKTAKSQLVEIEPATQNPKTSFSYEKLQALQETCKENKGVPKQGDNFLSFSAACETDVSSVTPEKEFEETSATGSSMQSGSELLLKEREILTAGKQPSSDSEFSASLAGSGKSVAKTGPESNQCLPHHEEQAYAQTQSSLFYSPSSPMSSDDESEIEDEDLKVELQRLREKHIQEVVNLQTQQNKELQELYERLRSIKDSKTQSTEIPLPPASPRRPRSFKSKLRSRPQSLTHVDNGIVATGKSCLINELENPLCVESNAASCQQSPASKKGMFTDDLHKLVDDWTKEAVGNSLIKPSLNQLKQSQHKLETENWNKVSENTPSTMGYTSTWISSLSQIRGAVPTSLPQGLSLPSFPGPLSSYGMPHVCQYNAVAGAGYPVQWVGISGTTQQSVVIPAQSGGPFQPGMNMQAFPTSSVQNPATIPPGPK

On to `C[C@H](Nc1ncnc2nc[nH]c12)c1cc2cccc(Cl)c2c(=O)n1-c1ccccc1`, for which the Activity in assay [1] was 89.9%; in assay [2], 94.8%; in assay [3], 103%; in assay [4], 98.5%; in assay [5], 86.8%.

As to `CC[C@H](Nc1ncnc2[nH]cnc12)c1nc2cccc(F)c2c(=O)n1-c1ccccc1`, the Activity was found to be 91.5% in assay [1]; 95.1% in assay [2]; 99.4% in assay [3]; 93.9% in assay [4]; 86.4% in assay [5].

Turning to `CC(C)Oc1ccc(-c2nn([C@@H](C)c3oc4ccc(F)cc4c(=O)c3-c3cccc(F)c3)c3ncnc(N)c23)cc1F` [UMBRALISIB], the Activity in assay [1] is 93.6%; in assay [2], 91.6%; in assay [3] it was 97.4%; in assay [4] it was 101%; in assay [5] it was 82.7%.
